The results in this text go back to PubChem BioAssay AID1259407 (Chemical Carcinogenesis Research Information System (CCRIS), 2018).

The subject of the data set is CCRIS mutagenicity, Ames/micronucleus/aberration tests. Briefly: CCRIS mutagenicity studies.
Setting [1] is: Test System: AMES SALMONELLA TYPHIMURIUM, Strain/Indicator: TA98, Metabolic Activation: NONE, Method: STANDARD PLATE.
Where [2] appears, read: Test System: AMES SALMONELLA TYPHIMURIUM, Strain/Indicator: TA98, Metabolic Activation: RAT, LIVER, S-9, AROCLOR 1254, Method: STANDARD PLATE.
Setting [3] is: Test System: AMES SALMONELLA TYPHIMURIUM, Strain/Indicator: TA100, Metabolic Activation: NONE, Method: STANDARD PLATE.
Setting [4] is: Test System: AMES SALMONELLA TYPHIMURIUM, Strain/Indicator: TA100, Metabolic Activation: RAT, LIVER, S-9, AROCLOR 1254, Method: STANDARD PLATE.
Setting [5] is: Test System: AMES SALMONELLA TYPHIMURIUM, Strain/Indicator: TA1535, Metabolic Activation: NONE, Method: STANDARD PLATE.
[6] abbreviates: Test System: AMES SALMONELLA TYPHIMURIUM, Strain/Indicator: TA1535, Metabolic Activation: RAT, LIVER, S-9, AROCLOR 1254, Method: STANDARD PLATE.
Where [7] appears, read: Test System: AMES SALMONELLA TYPHIMURIUM, Strain/Indicator: TA1537, Metabolic Activation: NONE, Method: STANDARD PLATE.
[8] abbreviates: Test System: AMES SALMONELLA TYPHIMURIUM, Strain/Indicator: TA1537, Metabolic Activation: RAT, LIVER, S-9, AROCLOR 1254, Method: STANDARD PLATE.
Where [9] appears, read: Test System: AMES SALMONELLA TYPHIMURIUM, Strain/Indicator: TA1538, Metabolic Activation: NONE, Method: STANDARD PLATE.
Where [10] appears, read: Test System: AMES SALMONELLA TYPHIMURIUM, Strain/Indicator: TA1538, Metabolic Activation: RAT, LIVER, S-9, AROCLOR 1254, Method: STANDARD PLATE.
[11] abbreviates: Test System: AMES SALMONELLA TYPHIMURIUM, Strain/Indicator: TA98, Metabolic Activation: RAT, LIVER, S-9, AROCLOR 1254, Method: PREINCUBATION

“Also recorded” adds a separate entry of the source. Active and inactive are the calls of the source. How the calls were made is not given here.

Turning to `C[C@]12CC[C@@H]3c4ccc(O)cc4CC[C@H]3[C@@H]1CC[C@@H]2O`, the mutagenic call (End Point: IN VITRO CHROMOSOMAL ABERRATIONS, Test System: CHINESE HAMSTER CELL DON (22;XY), Metabolic Activation: NONE) is “active; positive (ploidy changes)”; the mutagenic call (End Point: IN VITRO CHROMOSOMAL ABERRATIONS, Test System: CHO CELLS, Metabolic Activation: NONE) is “active; positive (structural changes)”; the mutagenic call (End Point: IN VITRO CHROMOSOMAL ABERRATIONS, Test System: HUMAN LYMPHOCYTES, Metabolic Activation: NONE, Method: FISH) was “active; positive (ploidy changes in chromosomes 1, 9, 16); also recorded: active; positive (ploidy changes in chromosomes 7 and 9)”; the mutagenic call (End Point: IN VITRO CHROMOSOMAL ABERRATIONS, Test System: HUMAN PERIPHERAL LYMPHOCYTES, Metabolic Activation: RAT, LIVER, S-9, AROCLOR 1254) is “inactive; negative”; the mutagenic call (End Point: IN VITRO CHROMOSOMAL ABERRATIONS, Test System: HUMAN PERIPHERAL LYMPHOCYTES, Metabolic Activation: RAT, LIVER, S-9, PHENOBARBITONE) was “active; positive”; the mutagenic call (End Point: IN VITRO CHROMOSOMAL ABERRATIONS, Test System: SYRIAN HAMSTER EMBRYO (SHE) CELLS, Metabolic Activation: NONE) was “active; positive (ploidy changes)”. Besides, the mutagenic call was “active; positive” (End Point: IN VITRO MICRONUCLEUS, Test System: HUMAN PERIPHERAL BLOOD LYMPHOCYTES, Metabolic Activation: NONE); “active; positive” (End Point: IN VITRO MICRONUCLEUS, Test System: HUMAN PERIPHERAL LYMPHOCYTES, Metabolic Activation: NONE); “inactive; negative” (End Point: IN VIVO MICRONUCLEUS, Test System: BONE MARROW POLYCHROMATIC ERYTHROCYTES, Species: MOUSE, Strain/Sex: B6C3F1/MALE, FEMALE, Route: IP INJECTION); “inactive; negative” (End Point: IN VIVO MICRONUCLEUS, Test System: BONE MARROW POLYCHROMATIC ERYTHROCYTES, Species: MOUSE, Strain/Sex: B6C3F1/MALE, Route: IP INJECTION); “inactive; negative” (End Point: IN VIVO MICRONUCLEUS, Test System: BONE MARROW POLYCHROMATIC ERYTHROCYTES, Species: MOUSE, Strain/Sex: CBA/MALE, Route: IP); “inactive; negative” (End Point: IN VIVO MICRONUCLEUS, Test System: BONE MARROW POLYCHROMATIC ERYTHROCYTES, Species: RAT, Strain/Sex: F344/MALE, Route: IP INJECTION). Moreover, the mutagenic call is “inactive; negative” (Test System: AMES SALMONELLA TYPHIMURIUM, Strain/Indicator: TA98, Metabolic Activation: MOUSE, LIVER, S-9, Method: STANDARD PLATE); “inactive; negative” under setting [1]; “inactive; negative” under setting [2]; “inactive; negative” (Test System: AMES SALMONELLA TYPHIMURIUM, Strain/Indicator: TA100, Metabolic Activation: MOUSE, LIVER, S-9, Method: STANDARD PLATE); “inactive; negative” under setting [3]; “inactive; negative” under setting [4]. The mutagenic call is “inactive; negative” (Test System: AMES SALMONELLA TYPHIMURIUM, Strain/Indicator: TA1535, Metabolic Activation: MOUSE, LIVER, S-9, Method: STANDARD PLATE); “inactive; negative” under setting [5]; “inactive; negative” under setting [6]; “inactive; negative” (Test System: AMES SALMONELLA TYPHIMURIUM, Strain/Indicator: TA1537, Metabolic Activation: MOUSE, LIVER, S-9, Method: STANDARD PLATE); “inactive; negative” under setting [7]; “inactive; negative” under setting [8]. Also, the mutagenic call is “inactive; negative” (Test System: AMES SALMONELLA TYPHIMURIUM, Strain/Indicator: TA1538, Metabolic Activation: MOUSE, LIVER, S-9, Method: STANDARD PLATE); “inactive; negative” under setting [9]; “inactive; negative” under setting [10]; “inactive; negative” (Test System: CHINESE HAMSTER V-79, Strain/Indicator: V-79 (HPRT)/6-THIOGUANINE, Metabolic Activation: NONE); “active; positive” (Test System: CHINESE HAMSTER V-79, Strain/Indicator: V-79 (HPRT)/6-THIOGUANINE, Metabolic Activation: NONE, Method: SUSPENSION/PLATE); “inactive; negative” (Test System: UDS RAT HEPATOCYTES, Strain/Indicator: THY INCORP (18-20 HR), Metabolic Activation: NONE, Method: LIQUID SCINTILLATION COUNTING).

`Cc1cc(O)c2c(c1O)C(=O)c1cccc(O)c1C2=O`: the mutagenic call (Test System: UDS RODENT HEPATOCYTES, Strain/Indicator: THY INCORP, Metabolic Activation: NONE, Method: AUTORADIOGRAPHY) was “inactive; negative”.

Turning to `C=C(C)C(=O)OCCOCCOC(=O)C(=C)C`, the mutagenic call was “inactive; negative” under setting [1]; “inactive; negative” under setting [2]; “inactive; negative” (Test System: AMES SALMONELLA TYPHIMURIUM, Strain/Indicator: TA98, Metabolic Activation: RAT, LIVER, S-9, SODIUM PHENOBARBITAL, Method: STANDARD PLATE); “inactive; negative” under setting [3]; “inactive; negative” under setting [4]; “inactive; negative” (Test System: AMES SALMONELLA TYPHIMURIUM, Strain/Indicator: TA100, Metabolic Activation: RAT, LIVER, S-9, SODIUM PHENOBARBITAL, Method: STANDARD PLATE). Moreover, the mutagenic call under setting [5] is “inactive; negative”; the mutagenic call under setting [6] was “inactive; negative”; the mutagenic call (Test System: AMES SALMONELLA TYPHIMURIUM, Strain/Indicator: TA1535, Metabolic Activation: RAT, LIVER, S-9, SODIUM PHENOBARBITAL, Method: STANDARD PLATE) was “inactive; negative”; the mutagenic call under setting [7] is “inactive; negative”; the mutagenic call under setting [8] was “inactive; negative”; the mutagenic call (Test System: AMES SALMONELLA TYPHIMURIUM, Strain/Indicator: TA1537, Metabolic Activation: RAT, LIVER, S-9, SODIUM PHENOBARBITAL, Method: STANDARD PLATE) is “inactive; negative”. The mutagenic call was “inactive; negative” under setting [9]; “inactive; negative” under setting [10]; “inactive; negative” (Test System: AMES SALMONELLA TYPHIMURIUM, Strain/Indicator: TA1538, Metabolic Activation: RAT, LIVER, S-9, SODIUM PHENOBARBITAL, Method: STANDARD PLATE).

On to `CCN(CC)c1ccc(N=Nc2ccc(N=Nc3c(S(=O)(=O)O)cc4ccc(N)cc4c3O)c(OC)c2)cc1`, for which the mutagenic call under setting [1] was “inactive; negative”; the mutagenic call under setting [2] is “active; positive”; the mutagenic call under setting [3] was “inactive; negative”; the mutagenic call under setting [4] is “inactive; negative”; the mutagenic call under setting [9] was “inactive; negative”; the mutagenic call under setting [10] was “active; positive”.

As to `O[C@@H]1C2=c3c(cc4cccc5ccc(c3c54)[C@H]1O)-c1ccccc12`, the mutagenic call under setting [4] was “inactive; negative”.

Regarding `CNc1nc2c3cccnc3ccc2n1C`, the mutagenic call is “active; positive” under setting [11] and “active; positive” (Test System: AMES SALMONELLA TYPHIMURIUM, Strain/Indicator: TA100, Metabolic Activation: RAT, LIVER, S-9, AROCLOR 1254, Method: PREINCUBATION).

Consider `Nc1ccc(N=Nc2ccc(N)cc2)cc1`, for which the mutagenic call is “active; positive” (Test System: AMES SALMONELLA TYPHIMURIUM, Strain/Indicator: TA98, Metabolic Activation: HAMSTER, LIVER, S-9, AROCLOR 1254, Method: STANDARD PLATE); “inactive; negative” under setting [1]; “active; positive” under setting [11]; “active; positive” under setting [2]; “inactive; negative” under setting [3]; “inactive; negative” under setting [4]. Besides, the mutagenic call is “inactive; negative” under setting [5]; “inactive; negative” under setting [6]; “inactive; negative” under setting [7]; “inactive; negative” under setting [8]; “inactive; negative” under setting [9]; “active; positive” under setting [10].
